Here are results for twelve compounds from patent publication US20240190880A1 (THE REGENTS OF THE UNIVERSITY OF MICHIGAN, priority 2021, published 2024).

The assay concerns the target T1, ER (Homo sapiens, UniProt P03372).
T1 construct: host or cells: T47D and MCF7 human breast cancer cells
T1 sequence (P03372 1-595): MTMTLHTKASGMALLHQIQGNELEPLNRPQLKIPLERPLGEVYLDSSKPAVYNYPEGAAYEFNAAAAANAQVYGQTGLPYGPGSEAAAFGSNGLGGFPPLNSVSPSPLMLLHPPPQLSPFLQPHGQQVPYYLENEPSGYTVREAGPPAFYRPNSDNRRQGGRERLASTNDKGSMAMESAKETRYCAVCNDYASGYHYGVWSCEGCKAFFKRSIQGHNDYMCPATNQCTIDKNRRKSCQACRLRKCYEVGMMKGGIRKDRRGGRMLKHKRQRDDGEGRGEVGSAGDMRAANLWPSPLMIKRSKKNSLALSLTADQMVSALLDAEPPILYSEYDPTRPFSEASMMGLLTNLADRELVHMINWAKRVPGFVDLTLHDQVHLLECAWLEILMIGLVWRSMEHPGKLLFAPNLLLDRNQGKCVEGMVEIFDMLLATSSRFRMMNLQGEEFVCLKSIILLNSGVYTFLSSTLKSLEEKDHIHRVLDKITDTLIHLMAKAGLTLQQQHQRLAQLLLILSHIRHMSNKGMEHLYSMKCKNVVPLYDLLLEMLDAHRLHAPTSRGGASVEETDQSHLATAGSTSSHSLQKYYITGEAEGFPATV
Briefly: ER degradation activity, in-cell western blot analysis in T47D cells. It is filed as cell-based. To be noted: 16 hours, Table A does not say which cell line (T47D or MCF7), read-out: Potency (DC50). An outline of the steps:
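Human T47D cells (DMEM, 10% FBS) are dosed for 16 h with 0.5% DMSO final and probed with 680- and 800-dye secondary antibodies. Relative ER is calculated against vehicle and untreated wells.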
On to `C[C@@H]1Cc2c([nH]c3ccccc23)[C@@H](c2c(F)cc(-c3ccc(CN4CCC(N5Cc6cc7c(cc6C5)C(=O)N(C5CCC(=O)NC5=O)C7=O)CC4)nc3)cc2F)N1CC(F)F` (stereo partly drawn) [E326, 6-(1-((5-(4-((1R,3R)-2-(2,2-difluoroethyl)-3-methyl-2,3,4,9-tetrahydro-1H-pyrido[3,4-b]indol-1-yl)-3,5-difluorophenyl)pyridin-2-yl)methyl)piperidin-4-yl)-2-(2,6-dioxopiperidin-3-yl)-6,7-dihydropyrrolo[3,4-f]isoindole-1,3(2H,5H)-dione], for which the DC50 – broadly, the concentration at which degradation of the target reaches its halfway point – was over 100 nM.

Regarding `C[C@H]1CC2(CCN(c3ccc([C@@H]4c5ccc(O)cc5CC[C@@H]4c4ccccc4)cc3)CC2)CN1C(=O)CN1Cc2cc3c(cc2C1)C(=O)N(C1CCC(=O)NC1=O)C3=O` (mixture of isomers) [E 142, Rac-2-(2,6-dioxopiperidin-3-yl)-6-(2-((S)-8-(4-((1R,2S)-6-hydroxy-2-phenyl-1,2,3,4-tetrahydronaphthalen-1-yl)phenyl)-3-methyl-2,8-diazaspiro[4.5]decan-2-yl)-2-oxoethyl)-6,7-dihydropyrrolo[3,4-f]isoindole-1,3(2H,5H)-dione], the DC50 was 10 to 100 nM.

Consider `C[C@H]1CC2(CCN(C(=O)CN3Cc4cc5c(cc4C3)C(=O)N(C3CCC(=O)NC3=O)C5=O)CC2)CN1c1ccc([C@@H]2c3ccc(O)cc3CC[C@@H]2c2ccccc2)cc1` (mixture of isomers) [E 143, Rac-2-(2,6-dioxopiperidin-3-yl)-6-(2-((S)-2-(4-((1R,2S)-6-hydroxy-2-phenyl-1,2,3,4-tetrahydronaphthalen-1-yl)phenyl)-3-methyl-2,8-diazaspiro[4.5]decan-8-yl)-2-oxoethyl)-6,7-dihydropyrrolo[3,4-f]isoindole-1,3(2H,5H)-dione], for which the DC50 was in the range of 10 to 100 nM.

With `O=C1CCC(N2C(=O)c3cc4c(cc3C2=O)CN(CC(=O)N2CCC3(CC2)CCN(c2ccc([C@@H]5c6ccc(O)cc6CC[C@@H]5c5ccccc5)cc2)CC3)CC4)C(=O)N1` (mixture of isomers) [E 162, rac-2-(2,6-dioxopiperidin-3-yl)-6-(2-(9-(4-((1R,2S)-6-hydroxy-2-phenyl-1,2,3,4-tetrahydronaphthalen-1-yl)phenyl)-3,9-diazaspiro[5.5]undecan-3-yl)-2-oxoethyl)-5,6,7,8-tetrahydro-1H-pyrrolo[3,4-g]isoquinoline-1,3(2H)-dione], the DC50 was in the range of 10 to 100 nM.

In the case of `C[C@@H]1Cc2c([nH]c3ccccc23)[C@@H](c2c(F)cc(N3CCCC4(CCN(C(=O)CN5Cc6cc7c(cc6C5)C(=O)N(C5CCC(=O)NC5=O)C7)C4)C3)cc2F)N1CC(F)F` (stereo partly drawn) [E 67, 3-(6-(2-(7-(4-((1R,3R)-2-(2,2-difluoroethyl)-3-methyl-2,3,4,9-tetrahydro-1H-pyrido[3,4-b]indol-1-yl)-3,5-difluorophenyl)-2,7-diazaspiro[4.5]decan-2-yl)-2-oxoethyl)-1-oxo-3,5,6,7-tetrahydropyrrolo[3,4-f]isoindol-2(1H)-yl)piperidine-2,6-dione], the DC50 lay in the range of 10 to 100 nM.

In the case of `C[C@@H]1Cc2c([nH]c3ccccc23)[C@@H](c2c(F)cc(N3CC4(CCCN(CC(=O)N5Cc6cc7c(cc6C5)C(=O)N(C5CCC(=O)NC5=O)C7=O)C4)C3)cc2F)N1CC(F)F` (stereo partly drawn) [E 105, 6-(2-(2-(4-((1R,3R)-2-(2,2-difluoroethyl)-3-methyl-2,3,4,9-tetrahydro-1H-pyrido[3,4-b]indol-1-yl)-3,5-difluorophenyl)-2,6-diazaspiro[3.5]nonan-6-yl)acetyl)-2-(2,6-dioxopiperidin-3-yl)-6,7-dihydropyrrolo[3,4-f]isoindole-1,3(2H,5H)-dione], the DC50 is over 100 nM.

Consider `O=C1CCC(N2C(=O)c3cc4c(cc3C2=O)CN(CC(=O)N2CCC3(C2)CN(c2ccc([C@@H]5c6ccc(O)cc6CC[C@@H]5c5ccccc5)cc2)C3)C4)C(=O)N1` (mixture of isomers) [E 17, rac-2-(2,6-dioxopiperidin-3-yl)-6-(2-(2-(4-((1R,2S)-6-hydroxy-2-phenyl-1,2,3,4-tetrahydronaphthalen-1-yl)phenyl)-2,6-diazaspiro[3.4]octan-6-yl)-2-oxoethyl)-6,7-dihydropyrrolo[3,4-f]isoindole-1,3(2H,5H)-dione], for which the DC50 was 10 to 100 nM.

Consider `O=C1CCC(N2C(=O)c3cc4c(cc3C2=O)CN(CC2(F)CCN(CC3CN(c5ccc([C@@H]6c7ccc(O)cc7CC[C@@H]6c6ccccc6)cc5)C3)CC2)C4)C(=O)N1` (stereo partly drawn) [E245, 2-(2,6-dioxopiperidin-3-yl)-6-((4-fluoro-1-((1-(4-((1R,2S)-6-hydroxy-2-phenyl-1,2,3,4-tetrahydronaphthalen-1-yl)phenyl)azetidin-3-yl)methyl)piperidin-4-yl)methyl)-6,7-dihydropyrrolo[3,4-f]isoindole-1,3(2H,5H)-dione], for which the DC50 was over 100 nM.

On to `O=C1CCC(N2Cc3cc4c(cc3C2=O)CN(CC2CCN(c3ccc([C@@H]5c6ccc(O)cc6CC[C@@H]5c5ccccc5)cc3)CC2)C4)C(=O)N1` (mixture of isomers) [E 1, Rac-3-(6-((1-(4-((1R,2S)-6-hydroxy-2-phenyl-1,2,3,4-tetrahydronaphthalen-1-yl)phenyl)piperidin-4-yl)methyl)-1-oxo-3,5,6,7-tetrahydropyrrolo[3,4-f]isoindol-2(1H)-yl)piperidine-2,6-dione], for which the DC50 is over 100 nM.

Take `C[C@@H]1Cc2c([nH]c3ccccc23)[C@@H](c2c(F)cc(N3CCCC4(CN(C(=O)CN5Cc6cc7c(cc6C5)C(=O)N(C5CCC(=O)NC5=O)C7=O)C4)C3)cc2F)N1CC(F)F` (stereo partly drawn) [E 81, 6-(2-(6-(4-((1R,3R)-2-(2,2-difluoroethyl)-3-methyl-2,3,4,9-tetrahydro-1H-pyrido[3,4-b]indol-1-yl)-3,5-difluorophenyl)-2,6-diazaspiro[3.5]nonan-2-yl)-2-oxoethyl)-2-(2,6-dioxopiperidin-3-yl)-6,7-dihydropyrrolo[3,4-f]isoindole-1,3(2H,5H)-dione]: the DC50 was 10 to 100 nM.

Take `O=C1CCC(N2C(=O)c3cc4c(cc3C2=O)CN(C2CCN(CC3CN(c5ccc([C@@H]6c7ccc(O)cc7CC[C@@H]6c6ccccc6)cc5)C3)CC2)C4)C(=O)N1` (stereo partly drawn) [E243, 2-(2,6-dioxopiperidin-3-yl)-6-(1-((1-(4-((1R,2S)-6-hydroxy-2-phenyl-1,2,3,4-tetrahydronaphthalen-1-yl)phenyl)azetidin-3-yl)methyl)piperidin-4-yl)-6,7-dihydropyrrolo[3,4-f]isoindole-1,3(2H,5H)-dione]: the DC50 is under 10 nM.

Turning to `C[C@@H]1Cc2c([nH]c3ccccc23)[C@@H](c2c(F)cc(N3CCC(N4CC(C(=O)N5Cc6cc7c(cc6C5)C(=O)N(C5CCC(=O)NC5=O)C7)C4)CC3)cc2F)N1CC(F)F` (stereo partly drawn) [E 120, 3-(6-(1-(1-(4-((1R,3R)-2-(2,2-difluoroethyl)-3-methyl-2,3,4,9-tetrahydro-1H-pyrido[3,4-b]indol-1-yl)-3,5-difluorophenyl)piperidin-4-yl)azetidine-3-carbonyl)-1-oxo-3,5,6,7-tetrahydropyrrolo[3,4-f]isoindol-2(1H)-yl)piperidine-2,6-dione], the DC50 was 10 to 100 nM.
